Among the data in US20150141381A1, “TETRACYCLINE COMPOUNDS HAVING TARGET THERAPEUTIC ACTIVITIES” (Paratek Pharmaceuticals, Inc., priority 2001, published 2015) are MIC values, retold here.

Like-named read-outs stand apart in the source and are kept apart here.

The subject of experiment [1] is E. coli mL308 225. In words: In Vitro Anti-Bacterial Activity Assay (MIC), gram negative. In kind it is cell-based. The following applies: Escherichia coli, ML308225, 18 h.
In experiment [2] the test system is S. aureus RN450. In words: In Vitro Anti-Bacterial Activity Assay (MIC), gram positive. The experiment is classed as cell-based. The settings on record: Staphylococcus aureus, RN450, 18 h.
The mark [3] stands for this setting: gram negative bacteria, read-out: Antibiotic Activity Gram − (MIC).
Setting [4] is: gram positive bacteria, read-out: Antibiotic Activity Gram + (MIC).
The mark [5] stands for this setting: MIC class, Table 3, read-out: Antibiotic Activity Gram −.
Setting [6] is: MIC class, Table 3, read-out: Antibiotic Activity Gram +.
Where [7] appears, read: MIC class, Table 3 (Continued), read-out: Gram− activity.
Setting [8] is: MIC class, Table 3 (Continued), read-out: Gram+ activity.

`C[C@H]1c2ccc(-c3cc4ccccc4s3)c(O)c2C(=O)C2=C(O)[C@]3(O)C(=O)C(C(N)=O)=C(O)[C@@H](N(C)C)[C@@H]3[C@@H](O)[C@@H]21`: the MIC in experiment [1] (setting [3]) and in experiment [2] (setting [4]) was below 4 µg/mL in each case.
On to `CN(C)c1cc(CNCc2ccc(C#N)cc2)c(O)c2c1C[C@H]1C[C@H]3[C@H](N(C)C)C(O)=C(C(N)=O)C(=O)[C@@]3(O)C(O)=C1C2=O`, for which the MIC in experiment [1] (setting [3]) was above 4 µg/mL; in experiment [2] (setting [4]), below 4 µg/mL.
Regarding `COc1ccc(CNCCF)cc1-c1ccc(O)c2c1C[C@H]1C[C@H]3[C@H](N(C)C)C(O)=C(C(N)=O)C(=O)[C@@]3(O)C(O)=C1C2=O`, the MIC in experiment [1] (read-out: Antibiotic Activity Gram − (MIC)) is above 4 µg/mL; in experiment [2] (setting [4]) it was below 4 µg/mL.
As for `CN(C)c1cc(CNOC(C)(C)C)c(O)c2c1C[C@H]1C[C@H]3[C@H](N(C)C)C(O)=C(C(N)=O)C(=O)[C@@]3(O)C(O)=C1C2=O`, the MIC in experiment [1] (setting [3]) and in experiment [2] (setting [4]) was below 4 µg/mL throughout.
With `CN(C)[C@@H]1C(O)=C(C(N)=O)C(=O)[C@@]2(O)C(O)=C3C(=O)c4c(O)c(CNC5CCCC5)cc(-c5ccoc5)c4C[C@H]3C[C@@H]12`, the MIC in experiment [1] (setting [3]) is above 4 µg/mL; in experiment [2] (setting [4]), below 4 µg/mL.
In the case of `CCCCOC(=O)NCc1cc(N(C)C)c2c(c1O)C(=O)C1=C(O)[C@]3(O)C(=O)C(C(N)=O)=C(O)[C@H](N(C)C)[C@@H]3C[C@@H]1C2` [ER], the values for the MIC in experiment [1] (setting [5]) and in experiment [2] (setting [6]) were above 4 µg/mL and below 4 µg/mL, respectively.
For `CN(C)[C@@H]1C(O)=C(C(N)=O)C(=O)[C@@]2(O)C(O)=C3C(=O)c4c(O)c(CN5CCCCC5)cc(-c5ccoc5)c4C[C@H]3C[C@@H]12` [drawing 3602], the results for the MIC in experiment [1] (setting [3]) and in experiment [2] (setting [4]) were above 4 µg/mL and below 4 µg/mL, respectively.
For `CN(C)[C@@H]1C(O)=C(C(N)=O)C(=O)[C@@]2(O)C(O)=C3C(=O)c4c(O)ccc(CNCc5ccc[nH]5)c4C[C@H]3C[C@@H]12` [KH], the MIC in experiment [1] (setting [5]) and in experiment [2] (setting [6]) was below 4 µg/mL in each case.
With `CN(C)[C@@H]1C(O)=C(C(N)=O)C(=O)[C@@]2(O)C(O)=C3C(=O)c4c(ccc(CNCCC(F)(F)F)c4O)C[C@H]3C[C@@H]12`, the MIC in experiment [1] (setting [3]) and in experiment [2] (setting [4]) was below 4 µg/mL in each case.
For `CCOc1ccccc1-c1ccc(O)c2c1C[C@H]1C[C@H]3[C@H](N(C)C)C(O)=C(C(N)=O)C(=O)[C@@]3(O)C(O)=C1C2=O` [AG], the MIC is above 4 µg/mL in experiment [1] (setting [5]) and below 4 µg/mL in experiment [2] (setting [6]).
Consider `CC(=O)Nc1ccc(-c2ccc(O)c3c2C[C@H]2C[C@H]4[C@H](N(C)C)C(O)=C(C(N)=O)C(=O)[C@@]4(O)C(O)=C2C3=O)cn1`, for which the MIC in experiment [1] (setting [3]) is above 4 µg/mL; in experiment [2] (setting [4]), below 4 µg/mL.
With `COc1ccc(CNCc2ccc(-c3ccc(O)c4c3C[C@H]3C[C@H]5[C@H](N(C)C)C(O)=C(C(N)=O)C(=O)[C@@]5(O)C(O)=C3C4=O)cc2)cc1` [GX], the MIC in experiment [1] (setting [5]) and in experiment [2] (setting [6]) was below 4 µg/mL each time.
Regarding `CCN(CC)Cc1ccc(OC)c(-c2ccc(O)c3c2C[C@H]2C[C@H]4C(N(C)C)C(O)=C(C(N)=O)C(=O)[C@@]4(O)C(O)=C2C3=O)c1` (stereo partly shown) [EC], the MIC in experiment [1] (setting [5]) and in experiment [2] (setting [6]) was below 4 µg/mL in each case.
Turning to `CC(=O)Cc1cc(I)c2c(c1O)C(=O)C1=C(O)[C@]3(O)C(=O)C(C(N)=O)=C(O)[C@@H](N(C)C)[C@@H]3C[C@@H]1C2`, the MIC in experiment [1] (setting [3]) and in experiment [2] (setting [4]) was above 4 µg/mL each time.
Take `Cc1noc(C)c1S(=O)(=O)NCc1ccc(O)c2c1C[C@H]1C[C@H]3[C@H](N(C)C)C(O)=C(C(N)=O)C(=O)[C@@]3(O)C(O)=C1C2=O` [IG]: the MIC is above 4 µg/mL in experiment [1] (setting [5]) and below 4 µg/mL in experiment [2] (setting [6]).
Turning to `CN(C)[C@@H]1C(O)=C(C(N)=O)C(=O)[C@@]2(O)C(O)=C3C(=O)c4c(O)ccc(CNCc5ccc(F)cc5)c4C[C@H]3C[C@@H]12`, the MIC in experiment [1] (setting [3]) and in experiment [2] (setting [4]) was below 4 µg/mL in each case.
Regarding `COCC(=O)Nc1cccc(-c2ccc(O)c3c2C[C@H]2C[C@H]4[C@H](N(C)C)C(O)=C(C(N)=O)C(=O)[C@@]4(O)C(O)=C2C3=O)c1`, the MIC in experiment [1] (setting [3]) is above 4 µg/mL; in experiment [2] (setting [4]), below 4 µg/mL.
In the case of `CN(C)c1cc(NCC2CCCCC2)c(O)c2c1C[C@H]1C[C@H]3[C@H](N(C)C)C(O)=C(C(N)=O)C(=O)[C@@]3(O)C(O)=C1C2=O`, the MIC in experiment [1] (setting [3]) and in experiment [2] (setting [4]) was above 4 µg/mL throughout.
In the case of `CN(C)[C@@H]1C(O)=C(C(N)=O)C(=O)[C@@]2(O)C(O)=C3C(=O)c4c(O)ccc(-c5cncc(Br)c5)c4C[C@H]3C[C@@H]12`, the MIC in experiment [1] (setting [3]) and in experiment [2] (setting [4]) was below 4 µg/mL throughout.
As for `CN(C)c1cc(CNCCc2ccccc2)c(O)c2c1C[C@H]1C[C@H]3C(N(C)C)C(O)=C(C(N)=O)C(=O)[C@@]3(O)C(O)=C1C2=O` (stereo partly shown) [EH], the MIC in experiment [1] (setting [5]) and in experiment [2] (setting [6]) was below 4 µg/mL each time.
Turning to `CCOC(=O)CNCc1ccc(OC)c(-c2ccc(O)c3c2C[C@H]2C[C@H]4[C@H](N(C)C)C(O)=C(C(N)=O)C(=O)[C@@]4(O)C(O)=C2C3=O)c1`, the MIC in experiment [1] (setting [3]) and in experiment [2] (setting [4]) was below 4 µg/mL each time.
As to `C[C@H]1c2cccc(O)c2C(=O)C2=C(O)[C@]3(O)C(=O)C(C(N)=O)=C(O)[C@@H](N(C)C)[C@@H]3[C@@H](O)[C@@H]21` [drawing 3660], the MIC in experiment [1] (setting [3]) was above 4 µg/mL; in experiment [2] (setting [4]) it was below 4 µg/mL.
In the case of `CN(C)[C@@H]1C(O)=C(C(N)=O)C(=O)[C@@]2(O)C(O)=C3C(=O)c4c(O)ccc(-c5ccc(NC(=O)C6CCCN6C(=O)C(F)(F)F)cc5)c4C[C@H]3C[C@@H]12` (stereo partly shown) [OH], the MIC is above 4 µg/mL in experiment [1] (setting [5]) and below 4 µg/mL in experiment [2] (setting [6]).
Turning to `CN(C)[C@@H]1C(O)=C(C(N)=O)C(=O)[C@@]2(O)C(O)=C3C(=O)c4c(O)ccc(C#CC(=O)O)c4C[C@H]3C[C@@H]12` [BH], the MIC in experiment [1] (setting [5]) and in experiment [2] (setting [6]) was above 4 µg/mL throughout.
For the compound `CNCc1cc(N(C)C)c2c(c1O)C(=O)C1=C(O)[C@]3(O)C(=O)C(C(N)=O)=C(O)[C@@H](N(C)C)[C@@H]3C[C@@H]1C2`, the MIC in experiment [1] (setting [3]) was above 4 µg/mL; in experiment [2] (setting [4]), below 4 µg/mL.
The matching figures for `CN(C)c1cc(CN)c(O)c2c1C[C@H]1C[C@H]3[C@H](N(C)C)C(O)=C(C(N)=O)C(=O)[C@@]3(O)C(O)=C1C2=O`: above 4 µg/mL and below 4 µg/mL.
The matching figures for `CN(C)[C@@H]1C(O)=C(C(N)=O)C(=O)[C@@]2(O)C(O)=C3C(=O)c4c(O)ccc(N5CCOCC5)c4C[C@H]3C[C@@H]12` [drawing 3548]: below 4 µg/mL and below 4 µg/mL.
As to `CN(C)[C@@H]1C(O)=C(C(N)=O)C(=O)[C@@]2(O)C(O)=C3C(=O)c4c(O)ccc(CNC(=O)c5ccccn5)c4C[C@H]3C[C@@H]12`, the MIC was above 4 µg/mL in experiment [1] (setting [3]) and below 4 µg/mL in experiment [2] (setting [4]).
Turning to `C[C@H]1c2ccc(NC3CCN(Cc4ccccc4)CC3)c(O)c2C(=O)C2=C(O)[C@]3(O)C(=O)C(C(N)=O)=C(O)[C@@H](N(C)C)[C@@H]3[C@@H](O)[C@@H]21` [JK], the MIC in experiment [1] (setting [5]) and in experiment [2] (setting [6]) was below 4 µg/mL in each case.
Consider `COc1ccc(CNCCC#N)cc1-c1ccc(O)c2c1C[C@H]1C[C@H]3[C@H](N(C)C)C(O)=C(C(N)=O)C(=O)[C@@]3(O)C(O)=C1C2=O`, for which the MIC is above 4 µg/mL in experiment [1] (setting [3]) and below 4 µg/mL in experiment [2] (setting [4]).
Take `COc1cccc(CCc2ccc(O)c3c2C[C@H]2C[C@H]4[C@H](N(C)C)C(O)=C(C(N)=O)C(=O)[C@@]4(O)C(O)=C2C3=O)c1` [BK]: the MIC in experiment [1] (setting [5]) was above 4 µg/mL; in experiment [2] (setting [6]) it was below 4 µg/mL.
For the compound `CC1c2cccc(O)c2C(=O)C(C(=O)O)C1[C@H](O)[C@@H]1CC(=O)C(C(N)=O)=C(O)[C@H]1N(C)C` (stereo partly shown), the MIC in experiment [1] (setting [7]) and in experiment [2] (setting [8]) was above 4 µg/mL each time.
As to `COc1ccc(-c2ccc(O)c3c2C[C@H]2C[C@H]4[C@H](N(C)C)C(O)=C(C(N)=O)C(=O)[C@@]4(O)C(O)=C2C3=O)cc1C=O` [HW], the MIC in experiment [1] (setting [5]) and in experiment [2] (setting [6]) was below 4 µg/mL throughout.
For `CN(C)c1cc(NCc2cc[nH]n2)c(O)c2c1C[C@H]1C[C@H]3[C@H](N(C)C)C(O)=C(C(N)=O)C(=O)[C@@]3(O)C(O)=C1C2=O`, the MIC in experiment [1] (setting [3]) and in experiment [2] (setting [4]) was above 4 µg/mL in each case.
For `CN(C)[C@H]1C(O)=C(C(N)=O)C(=O)[C@@]2(O)C(O)=C3C(=O)c4c(O)ccc(-c5ccc(CN6CCCC6)o5)c4C[C@H]3C[C@@H]12` [LM], the MIC in experiment [1] (setting [5]) and in experiment [2] (setting [6]) was below 4 µg/mL in each case.
`COC(=O)c1ccc2c(c1O)C(=O)C1=C(O)[C@]3(O)C(=O)C(C(N)=O)=C(O)[C@@H](N(C)C)[C@@H]3[C@@H](O)[C@@H]1[C@H]2C`: the MIC in experiment [1] (setting [3]) and in experiment [2] (setting [4]) was above 4 µg/mL in each case.
As to `CN(C)C1C(O)=C(C(N)=O)C(=O)[C@@]2(O)C(O)=C3C(=O)c4c(O)ccc(-c5ccc(NC(=O)Nc6ccc(OC(F)(F)F)cc6)cc5)c4C[C@H]3C[C@@H]12` (stereo partly shown) [GV], the MIC in experiment [1] (setting [5]) and in experiment [2] (setting [6]) was above 4 µg/mL throughout.
On to `CN(C)C1C(O)=C(C(N)=O)C(=O)[C@@]2(O)C(O)=C3C(=O)c4c(O)ccc(CNC5CCCC5)c4C[C@H]3C[C@@H]12` (stereo partly shown) [NE], for which the MIC in experiment [1] (setting [5]) and in experiment [2] (setting [6]) was below 4 µg/mL in each case.
For `CN(C)Cc1cc(-c2ccc(O)c3c2C[C@H]2C[C@H]4[C@H](N(C)C)C(O)=C(C(N)=O)C(=O)[C@@]4(O)C(O)=C2C3=O)ccc1F` [OQ], the MIC in experiment [1] (setting [5]) and in experiment [2] (setting [6]) was below 4 µg/mL in each case.
For the compound `CN(C)[C@@H]1C(O)=C(C(N)=O)C(=O)[C@@]2(O)C(O)=C3C(=O)c4c(ccc(NC5CC(C)(C)NC(C)(C)C5)c4O)C[C@H]3C[C@@H]12` [LF], the MIC in experiment [1] (setting [5]) was above 4 µg/mL; in experiment [2] (setting [6]) it was below 4 µg/mL.
For the compound `CC1c2cccc(O)c2C(=O)C2=C(O)[C@]3(O)C(=O)C(C(N)=O)=C(O)[C@@H](N(C)C)[C@@H]3[C@@H](OC(=O)C3CCC3)[C@@H]21` (stereo partly shown), the MIC in experiment [1] (setting [7]) and in experiment [2] (setting [8]) was below 4 µg/mL each time.
